These are literature values, as cited in patent US9775802B2, “Method for preparing suspensions of low-solubility materials” (Bausch & Lomb Incorporated, priority 2009, dated 2017).

Counter-ions that a name gives are not always drawn. Like-named read-outs stand apart in the source and are kept apart here.

For this data set the following is noted: for solubility in water, estimated: 'estimated to be'.

As to `CC[C@H]1OC(=O)[C@H](C)[C@@H](O[C@H]2C[C@@](C)(OC)[C@@H](O)[C@H](C)O2)[C@H](C)[C@@H](O[C@@H]2O[C@H](C)C[C@H](N(C)C)[C@H]2O)[C@](C)(O)C[C@@H](C)CN(C)[C@H](C)[C@@H](O)[C@]1(C)O` [azithromycin dihydrate], the solubility in water result (37° C.) was “about 39 mg/mL”. Consider `CC[C@H]1OC(=O)[C@H](C)[C@@H](O[C@H]2C[C@@](C)(OC)[C@@H](O)[C@H](C)O2)[C@H](C)[C@@H](O[C@@H]2O[C@H](C)C[C@H](N(C)C)[C@H]2O)[C@](C)(O)C[C@@H](C)CN(C)[C@H](C)[C@@H](O)[C@]1(C)O` [azithromycin], for which the solubility in water entry (temperature not stated) is “about 0.5 mg/mL”. Regarding `C[C@@H]1C[C@H]2[C@@H]3CCC4=CC(=O)C=C[C@]4(C)[C@@]3(F)[C@@H](O)C[C@]2(C)[C@@]1(O)C(=O)COP(=O)(O)O` [dexamethasone phosphate disodium salt], the “solubility in water (in words)” value is recorded as “soluble in water”.

As for `C[C@@H]1C[C@H]2[C@@H]3CCC4=CC(=O)C=C[C@]4(C)[C@@]3(F)[C@@H](O)C[C@]2(C)[C@@]1(O)C(=O)CO` [dexamethasone], the solubility in water result (25° C.) was “about 0.1 mg/mL”.

Turning to `O=C(O)Cc1ccccc1Nc1c(Cl)cccc1Cl` [diclofenac sodium salt], under “temperature not stated”, the solubility in water entry is reported as “about 50 mg/mL”.

Regarding `O=C(O)Cc1ccccc1Nc1c(Cl)cccc1Cl` [diclofenac], the “solubility in water, estimated” value is reported as “about 0.002 mg/mL”. On to `COc1c(N2C[C@@H]3CCCN[C@@H]3C2)c(F)cc2c(=O)c(C(=O)O)cn(C3CC3)c12` [moxifloxacin], for which the “solubility in water, estimated” value is recorded as “about 0.17 mg/mL”.
